The text below walks through data of patent US12018059B2, “Human amylin analog polypeptides and methods of use” (Intarcia Therapeutics, Inc., priority 2018, dated 2024).

Broadly, the Vd is the apparent volume that relates the amount in the body to the concentration in plasma or blood. Low readings indicate little distribution into tissue, high ones wide distribution into tissue. As a reminder, the clearance is the rate of elimination divided by the concentration. A higher clearance goes with efficient removal. The half-life is the time in which the quantity being followed falls by half.

Starred links: 1 amine or outer side, 2 acyl side, 3 side chain; linkers in the order of their positions; H or OH if unused. Positions of bridges follow the written chain, without caps; N, C: chain ends. Non-standard residues stand in square brackets, D forms with d. Residues, ends and D or L forms follow the SMILES beside them. Groups on a side chain read outwards from the residue. *: point of attachment. γGlu = O=C(O)[C@H](CCC(=O)[*:2])N[*:1]; Palmitoyl = CCCCCCCCCCCCCCCC(=O)*; X5 = O=C(O)CCCCCCCCCCCC(=O)*

This data set in a line: in vivo. Details: species or system Sprague-Dawley rats. Particulars: rat, iv, 0.033 mg/kg. The procedure: Peptides were dissolved in sterile saline and administered as a 1-hour intravenous infusion to non-fasted male Sprague-Dawley rats (n=3 per group) via femoral vein cannula at a final dose of 0.033 mg/kg. […] Blood samples (approximately 250 μL) were collected for pharmacokinetic analysis via a jugular vein cannula at 0.25, 0.5, 0.75, 1, 1.17, 1.33, 1.5, 2, 4, 6, 8, 24, 30 and 48 hr post-start of infusion into microtainer tubes containing K2EDTA as anticoagulant and 25 μL of a protease inhibitor cocktail. Plasma was prepared by centrifugation and stored at −80° C. until analysis. The results of this analysis are shown in Table 9 and few exemplars in FIGS. 3a-3b. […]
A 60 μL aliquot of each plasma sample was placed into to a 96-well plate. To each well was added 6 μL of 0.5% Tween-20. Plates were then vortexed mixed for 10 minutes at 1200 rpm before 180 μL of 0.1% TFA in 2:1 ethanol:acetonitrile containing an appropriate internal standard was added to each well. Plates were vortex mixed for 5 min at 1300 rpm, and then centrifuged for 10 min at 2844×g. Supernatants (180 μL) were placed into a clean 96-well plate and evaporated under a nitrogen stream at 45° C. Residues were reconstituted in 80 μL of 20% acetonitrile (aq) containing 0.1% formic acid.
A […] aliquot of each plasma sample was diluted with […] of 10 mM ammonium acetate (pH 6.8) containing an appropriate internal standard and loaded onto an Oasis WCX microElution plate (Waters Corporation, Milford, MA) that had been pre-conditioned with […] of methanol and […] of deionized water. Samples were washed with […] of 5% ammonium hydroxide (aq) followed by […] of 20% acetonitrile in water. The analyte was eluted with […] of 5% formic acid in 75:25 acetonitrile:water. The eluent was dried under a nitrogen stream. Residues were reconstituted in 80 μL of 20% acetonitrile (aq) containing 0.1% formic acid.
All calibration standards were prepared in control rat plasma containing K2EDTA and protease inhibitor cocktail.
Samples and standards were analyzed by TurbolonSpray™ UPLC-MS/MS using a system consisting of a CTC HTS PAL auto-injector (Leap, Carrboro, NC), an Agilent Infinity 1290 system with column oven (Palo Alto, CA), a Valco switching valve (Houston, TX), and either an AB Sciex API 5600 TripleTOF™ or Sciex API 4000QTrap mass spectrometer (Framingham, MA). Samples were injected onto a 2.1×50 mm reverse phase C18 analytical column, typically a Waters CORTECS UPLC C18+, 1.6 μm (Waters Corporation, Milford, MA) or similar. […] Initial conditions consisted of 90% A and 10% B. The organic component was increased to 95% B over a period of 3-4 minutes, depending on the peptide. Typical flow rates were 600 μL/min. The column temperature was held constant at 40 or 50° C. Peptides were quantified by monitoring one or more product ions produced from a multiply charged parent ion.

Compound `CCCCCCCCCCCCCCCC(=O)N[C@@H](CCC(=O)N[C@@H](CCC(=O)NCCCC[C@@H](NC(=O)[C@H](CCC(=O)O)NC(=O)[C@H](CCC(N)=O)NC(=O)[C@H](C)NC(=O)[C@H](CC(C)C)NC(=O)[C@H](CCCNC(=N)N)NC(=O)[C@H](CCC(N)=O)NC(=O)[C@@H](NC(=O)[C@H](C)NC(=O)[C@@H]1CSSC[C@H](NC(=O)[C@@H](N)CO)C(=O)N[C@@H](CC(N)=O)C(=O)N[C@@H]([C@@H](C)O)C(=O)N[C@@H](CO)C(=O)N[C@@H]([C@@H](C)O)C(=O)N1)[C@@H](C)O)C(=O)N[C@@H](Cc1c[nH]cn1)C(=O)N[C@@H](CCCCN)C(=O)N[C@@H](CO)C(=O)N[C@@H](CO)C(=O)N[C@@H](CC(N)=O)C(=O)N[C@@H](CC(N)=O)C(=O)N[C@@H](Cc1ccccc1)C(=O)NCC(=O)N1CCC[C@H]1C(=O)N[C@H](C(=O)N[C@@H](CC(C)C)C(=O)N1CCC[C@H]1C(=O)N1CCC[C@H]1C(=O)N[C@H](C(=O)N[C@@H](CCCCN)C(=O)N[C@H](C(=O)NCC(=O)N[C@@H](CO)C(=O)N[C@@H](CCC(=O)O)C(=O)N[C@H](C(=O)N[C@@H](Cc1ccc(O)cc1)C(N)=O)[C@@H](C)O)C(C)C)[C@@H](C)O)[C@@H](C)CC)C(=O)O)C(=O)O` [Compound A28] (H-SCNTSTCATQRLAQE[dK]([γGlu-γGlu-Palmitoyl])HKSSNNFGPILPPTKVGSETY-NH2; disulfide 2-7) had a Vd of 0.17 L/kg, a clearance of 0.485 mL/min/kg and a half-life of 5.41 h.

`CC[C@H](C)[C@H](NC(=O)[C@@H]1CCCN1C(=O)CNC(=O)[C@H](Cc1ccccc1)NC(=O)[C@H](CC(N)=O)NC(=O)[C@H](CC(N)=O)NC(=O)[C@H](CO)NC(=O)[C@H](CO)NC(=O)[C@H](CCCCN)NC(=O)[C@H](Cc1c[nH]cn1)NC(=O)[C@H](CC(C)C)NC(=O)[C@H](CCCCNC(=O)CCCCCCCCCCCC(=O)O)NC(=O)[C@H](CC(N)=O)NC(=O)[C@H](C)NC(=O)[C@H](CC(C)C)NC(=O)[C@H](CCCNC(=N)N)NC(=O)[C@H](CCC(N)=O)NC(=O)[C@@H](NC(=O)[C@H](C)NC(=O)[C@@H]1CSSC[C@H](NC(=O)[C@@H](N)CO)C(=O)N[C@@H](CC(N)=O)C(=O)N[C@@H]([C@@H](C)O)C(=O)N[C@@H](CO)C(=O)N[C@@H]([C@@H](C)O)C(=O)N1)[C@@H](C)O)C(=O)N[C@@H](CC(C)C)C(=O)N1CCC[C@H]1C(=O)N1CCC[C@H]1C(=O)N[C@H](C(=O)N[C@@H](CCCCN)C(=O)N[C@H](C(=O)NCC(=O)N[C@@H](CO)C(=O)N[C@@H](CCC(=O)O)C(=O)N[C@H](C(=O)N[C@@H](Cc1ccc(O)cc1)C(N)=O)[C@@H](C)O)C(C)C)[C@@H](C)O` [Compound A31] (H-SCNTSTCATQRLANK(X5)LHKSSNNFGPILPPTKVGSETY-NH2; disulfide 2-7): the Vd stood at 0.57 L/kg, the clearance turned out to be 18.9 mL/min/kg and the half-life is 0.404 h.

Consider `CCCCCCCCCCCCCCCC(=O)N[C@@H](CCC(=O)NCCCC[C@@H](NC(=O)[C@H](CCC(=O)O)NC(=O)[C@H](CC(N)=O)NC(=O)[C@H](C)NC(=O)[C@H](CC(C)C)NC(=O)[C@H](CCCNC(=N)N)NC(=O)[C@H](CCC(N)=O)NC(=O)[C@@H](NC(=O)[C@H](C)NC(=O)[C@@H]1CSSC[C@H](NC(=O)[C@@H](N)CO)C(=O)N[C@@H](CC(N)=O)C(=O)N[C@@H]([C@@H](C)O)C(=O)N[C@@H](CO)C(=O)N[C@@H]([C@@H](C)O)C(=O)N1)[C@@H](C)O)C(=O)N[C@@H](Cc1c[nH]cn1)C(=O)N[C@@H](CCCCN)C(=O)N[C@@H](CO)C(=O)N[C@@H](CO)C(=O)N[C@@H](CC(N)=O)C(=O)N[C@@H](CC(N)=O)C(=O)N[C@@H](Cc1ccccc1)C(=O)NCC(=O)N1CCC[C@H]1C(=O)N[C@H](C(=O)N[C@@H](CC(C)C)C(=O)N1CCC[C@H]1C(=O)N1CCC[C@H]1C(=O)N[C@H](C(=O)N[C@@H](CCCCN)C(=O)N[C@H](C(=O)NCC(=O)N[C@@H](CO)C(=O)N[C@@H](CCC(=O)O)C(=O)N[C@H](C(=O)N[C@@H](Cc1ccc(O)cc1)C(N)=O)[C@@H](C)O)C(C)C)[C@@H](C)O)[C@@H](C)CC)C(=O)O` [Compound A36] (H-SCNTSTCATQRLANE[dK]([γGlu-Palmitoyl])HKSSNNFGPILPPTKVGSETY-NH2; disulfide 2-7), for which the Vd is 0.244 L/kg, the clearance is 3.93 mL/min/kg and the half-life was 1.32 h.

`CCCCCCCCCCCCCCCC(=O)NCC(=O)N[C@@H](CCC(=O)N[C@@H](CCC(=O)NCCCC[C@@H](NC(=O)[C@H](CCC(=O)O)NC(=O)[C@H](CC(N)=O)NC(=O)[C@H](C)NC(=O)[C@H](CC(C)C)NC(=O)[C@H](CCCNC(=N)N)NC(=O)[C@H](CCC(N)=O)NC(=O)[C@@H](NC(=O)[C@H](C)NC(=O)[C@@H]1CSSC[C@H](NC(=O)[C@@H](N)CO)C(=O)N[C@@H](CC(N)=O)C(=O)N[C@@H]([C@@H](C)O)C(=O)N[C@@H](CO)C(=O)N[C@@H]([C@@H](C)O)C(=O)N1)[C@@H](C)O)C(=O)N[C@@H](Cc1c[nH]cn1)C(=O)N[C@@H](CCCCN)C(=O)N[C@@H](CO)C(=O)N[C@@H](CO)C(=O)N[C@@H](CC(N)=O)C(=O)N[C@@H](CC(N)=O)C(=O)N[C@@H](Cc1ccccc1)C(=O)NCC(=O)N1CCC[C@H]1C(=O)N[C@H](C(=O)N[C@@H](CC(C)C)C(=O)N1CCC[C@H]1C(=O)N1CCC[C@H]1C(=O)N[C@H](C(=O)N[C@@H](CCCCN)C(=O)N[C@H](C(=O)NCC(=O)N[C@@H](CO)C(=O)N[C@@H](CCC(=O)O)C(=O)N[C@H](C(=O)N[C@@H](Cc1ccc(O)cc1)C(N)=O)[C@@H](C)O)C(C)C)[C@@H](C)O)[C@@H](C)CC)C(=O)O)C(=O)O` [Compound A39] (H-SCNTSTCATQRLANE[dK]([γGlu-γGlu-Gly-Palmitoyl])HKSSNNFGPILPPTKVGSETY-NH2; disulfide 2-7) showed a Vd of 0.502 L/kg, a clearance of 1.35 mL/min/kg and a half-life of 4.85 h.

In turn, `CCCCCCCCCCCCCCCC(=O)N[C@@H](CCC(=O)NCCCC[C@H](NC(=O)[C@H](CC(N)=O)NC(=O)[C@H](C)NC(=O)[C@H](CC(C)C)NC(=O)[C@H](CCCNC(=N)N)NC(=O)[C@H](CCC(N)=O)NC(=O)[C@@H](NC(=O)[C@H](C)NC(=O)[C@@H]1CSSC[C@H](NC(=O)[C@@H](N)CO)C(=O)N[C@@H](CC(N)=O)C(=O)N[C@@H]([C@@H](C)O)C(=O)N[C@@H](CO)C(=O)N[C@@H]([C@@H](C)O)C(=O)N1)[C@@H](C)O)C(=O)N[C@@H](CC(C)C)C(=O)N[C@@H](Cc1c[nH]cn1)C(=O)N[C@@H](CCCCN)C(=O)N[C@@H](CO)C(=O)N[C@@H](CO)C(=O)N[C@@H](CC(N)=O)C(=O)N[C@@H](CC(N)=O)C(=O)N[C@@H](Cc1ccccc1)C(=O)NCC(=O)N1CCC[C@H]1C(=O)N[C@H](C(=O)N[C@@H](CC(C)C)C(=O)N1CCC[C@H]1C(=O)N1CCC[C@H]1C(=O)N[C@H](C(=O)N[C@@H](CCCCN)C(=O)N[C@H](C(=O)NCC(=O)N[C@@H](CO)C(=O)N[C@@H](CCC(=O)O)C(=O)N[C@H](C(=O)N[C@@H](Cc1ccc(O)cc1)C(N)=O)[C@@H](C)O)C(C)C)[C@@H](C)O)[C@@H](C)CC)C(=O)O` [Compound A42] (H-SCNTSTCATQRLANK([γGlu-Palmitoyl])LHKSSNNFGPILPPTKVGSETY-NH2; disulfide 2-7) gave a Vd of 0.552 L/kg, a clearance of 23.7 mL/min/kg and a half-life of 0.391 h.
